Reference: patent US8048825B2, “Haloalkylsulfonanilide derivatives or salt thereof, herbicide comprising the derivatives as active ingredient, and use of the herbicide” (Nihon Nohyaku Co., Ltd., priority 2006, dated 2011)

Experiments:
Format in all cases: in vivo
[1] = system: Lindernia procumbens; experiment: Herbicidal efficacy on paddy field weeds of pre-emergence stage (Pre), Test Example 1; conditions: 1000 g/ha as active ingredient, examined after 21 days
Summary of the method: (§1)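 Clay-loam pots sown with Scirpus juncoides, covered with soil containing Lindernia procumbens seed, flooded to 5 cm. Next day formulated compound applied dropwise to water at 1000 g/ha a.i. Greenhouse-grown; growth inhibition versus untreated scored 0–5 after 21 days.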

[2] = system: Scirpus juncoides; experiment: as above; conditions: 1000 g/ha as active ingredient, examined after 21 days
Summary of the method: as §1

[3] = system: Echinochloa crus-galli; experiment: Herbicidal effect on paddy field weeds of post-emergence stage (Post), Test Example 2; conditions: one-leaf stage, 1000 g/ha as active ingredient, examined after 21 days
Summary of the method: (§2)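 Scirpus juncoides and Echinochloa crus-galli sown in clay loam, with Lindernia procumbens seed in the soil cover, under 5 cm flooding in greenhouse. At one-leaf stage, 1000 g/ha active ingredient applied to pot water. Efficacy scored visually 0–5 against untreated plants at 21 days after treatment.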

[4] = system: Lindernia procumbens; experiment: as above; conditions: one-leaf stage, 1000 g/ha as active ingredient, examined after 21 days
Summary of the method: as §2

[5] = system: Scirpus juncoides; experiment: as above; conditions: one-leaf stage, 1000 g/ha as active ingredient, examined after 21 days
Summary of the method: as §2

## CC1(C)CCN(Cc2ccccc2N(C(=O)Oc2ccccc2)S(=O)(=O)C(F)(F)F)C(=O)O1 [Compound 1-506]
[1]
  Lindernia procumbens pre (herbicidal effect): 5 (100% herbicidal effect, phytotoxicity)
[2]
  Scirpus juncoides pre (herbicidal effect): 5 (100% herbicidal effect, phytotoxicity)
[3]
  Echinochloa crus-galli post (herbicidal effect): 4 (90%-99% herbicidal effect, phytotoxicity)
[4]
  Lindernia procumbens post (herbicidal effect): 5 (100% herbicidal effect, phytotoxicity)
[5]
  Scirpus juncoides post (herbicidal effect): 4 (90%-99% herbicidal effect, phytotoxicity)

## O=C1OCCCCN1Cc1ccccc1NS(=O)(=O)C(F)(F)F [2-1]
[1]
  Lindernia procumbens pre (herbicidal effect): 4 (90%-99% herbicidal effect, phytotoxicity)
[2]
  Scirpus juncoides pre (herbicidal effect): 4 (90%-99% herbicidal effect, phytotoxicity)
[3]
  Echinochloa crus-galli post (herbicidal effect): 4 (90%-99% herbicidal effect, phytotoxicity)
[4]
  Lindernia procumbens post (herbicidal effect): 4 (90%-99% herbicidal effect, phytotoxicity)
[5]
  Scirpus juncoides post (herbicidal effect): 4 (90%-99% herbicidal effect, phytotoxicity)

## CCOC(=O)N(c1ccccc1CN1CCC(C)(c2ccccc2C(F)(F)F)OC1=O)S(=O)(=O)C(F)(F)F (stereo not drawn) [Compound 1-395]
[1]
  Lindernia procumbens pre (herbicidal effect): 5 (100% herbicidal effect, phytotoxicity)
[2]
  Scirpus juncoides pre (herbicidal effect): 5 (100% herbicidal effect, phytotoxicity)
[3]
  Echinochloa crus-galli post (herbicidal effect): 4 (90%-99% herbicidal effect, phytotoxicity)
[4]
  Lindernia procumbens post (herbicidal effect): 5 (100% herbicidal effect, phytotoxicity)
[5]
  Scirpus juncoides post (herbicidal effect): 4 (90%-99% herbicidal effect, phytotoxicity)

## CC(C)COC(=O)N(c1ccccc1CN1CCC(C)(C2CC2)OC1=O)S(=O)(=O)C(F)(F)F (stereo not drawn) [Compound 1-130]
[1]
  Lindernia procumbens pre (herbicidal effect): 4 (90%-99% herbicidal effect, phytotoxicity)
[2]
  Scirpus juncoides pre (herbicidal effect): 4 (90%-99% herbicidal effect, phytotoxicity)
[3]
  Echinochloa crus-galli post (herbicidal effect): 4 (90%-99% herbicidal effect, phytotoxicity)
[4]
  Lindernia procumbens post (herbicidal effect): 4 (90%-99% herbicidal effect, phytotoxicity)
[5]
  Scirpus juncoides post (herbicidal effect): 4 (90%-99% herbicidal effect, phytotoxicity)

## CC(C)(C)COC(=O)N(c1ccccc1CN1CCC2(CCCC2)OC1=O)S(=O)(=O)C(F)(F)F [Compound 1-143]
[1]
  Lindernia procumbens pre (herbicidal effect): 4 (90%-99% herbicidal effect, phytotoxicity)
[2]
  Scirpus juncoides pre (herbicidal effect): 4 (90%-99% herbicidal effect, phytotoxicity)
[3]
  Echinochloa crus-galli post (herbicidal effect): 4 (90%-99% herbicidal effect, phytotoxicity)
[4]
  Lindernia procumbens post (herbicidal effect): 4 (90%-99% herbicidal effect, phytotoxicity)
[5]
  Scirpus juncoides post (herbicidal effect): 4 (90%-99% herbicidal effect, phytotoxicity)

## CCC1(c2ccccc2)CCN(Cc2ccccc2N(C(=O)OCC(C)C)S(=O)(=O)C(F)(F)F)C(=O)O1 (stereo not drawn) [Compound 1-321]
[1]
  Lindernia procumbens pre (herbicidal effect): 5 (100% herbicidal effect, phytotoxicity)
[2]
  Scirpus juncoides pre (herbicidal effect): 4 (90%-99% herbicidal effect, phytotoxicity)
[3]
  Echinochloa crus-galli post (herbicidal effect): 4 (90%-99% herbicidal effect, phytotoxicity)
[4]
  Lindernia procumbens post (herbicidal effect): 5 (100% herbicidal effect, phytotoxicity)
[5]
  Scirpus juncoides post (herbicidal effect): 4 (90%-99% herbicidal effect, phytotoxicity)

## CC(C)(C)COC(=O)N(c1ccccc1CN1CCC(C)(C2CC2)OC1=O)S(=O)(=O)C(F)(F)F (stereo not drawn) [Compound 1-131]
[1]
  Lindernia procumbens pre (herbicidal effect): 4 (90%-99% herbicidal effect, phytotoxicity)
[2]
  Scirpus juncoides pre (herbicidal effect): 4 (90%-99% herbicidal effect, phytotoxicity)
[3]
  Echinochloa crus-galli post (herbicidal effect): 4 (90%-99% herbicidal effect, phytotoxicity)
[4]
  Lindernia procumbens post (herbicidal effect): 4 (90%-99% herbicidal effect, phytotoxicity)
[5]
  Scirpus juncoides post (herbicidal effect): 4 (90%-99% herbicidal effect, phytotoxicity)

## CC(C)COC(=O)N(c1ccccc1CN1CCC(C)(C)OC1=S)S(=O)(=O)C(F)(F)F [Compound 1-63]
[1]
  Lindernia procumbens pre (herbicidal effect): 4 (90%-99% herbicidal effect, phytotoxicity)
[2]
  Scirpus juncoides pre (herbicidal effect): 4 (90%-99% herbicidal effect, phytotoxicity)
[3]
  Echinochloa crus-galli post (herbicidal effect): 4 (90%-99% herbicidal effect, phytotoxicity)
[4]
  Lindernia procumbens post (herbicidal effect): 4 (90%-99% herbicidal effect, phytotoxicity)
[5]
  Scirpus juncoides post (herbicidal effect): 4 (90%-99% herbicidal effect, phytotoxicity)

## CC(C)(C)COC(=O)N(c1ccccc1CN1CCC(C)(C)OC1=O)S(=O)(=O)C(F)(F)F [Compound 1-51]
[1]
  Lindernia procumbens pre (herbicidal effect): 4 (90%-99% herbicidal effect, phytotoxicity)
[2]
  Scirpus juncoides pre (herbicidal effect): 4 (90%-99% herbicidal effect, phytotoxicity)
[3]
  Echinochloa crus-galli post (herbicidal effect): 4 (90%-99% herbicidal effect, phytotoxicity)
[4]
  Lindernia procumbens post (herbicidal effect): 4 (90%-99% herbicidal effect, phytotoxicity)
[5]
  Scirpus juncoides post (herbicidal effect): 4 (90%-99% herbicidal effect, phytotoxicity)

## CCC1(C)CCN(Cc2ccccc2NS(=O)(=O)C(F)(F)F)C(=O)O1 (stereo not drawn) [Compound 1-69]
[1]
  Lindernia procumbens pre (herbicidal effect): 4 (90%-99% herbicidal effect, phytotoxicity)
[2]
  Scirpus juncoides pre (herbicidal effect): 4 (90%-99% herbicidal effect, phytotoxicity)
[3]
  Echinochloa crus-galli post (herbicidal effect): 4 (90%-99% herbicidal effect, phytotoxicity)
[4]
  Lindernia procumbens post (herbicidal effect): 4 (90%-99% herbicidal effect, phytotoxicity)
[5]
  Scirpus juncoides post (herbicidal effect): 4 (90%-99% herbicidal effect, phytotoxicity)

## CCOC(=O)N(c1ccccc1CN1CCC(C)COC1=O)S(=O)(=O)C(F)(F)F (racemic) [2-25]
[1]
  Lindernia procumbens pre (herbicidal effect): 4 (90%-99% herbicidal effect, phytotoxicity)
[2]
  Scirpus juncoides pre (herbicidal effect): 4 (90%-99% herbicidal effect, phytotoxicity)
[3]
  Echinochloa crus-galli post (herbicidal effect): 4 (90%-99% herbicidal effect, phytotoxicity)
[4]
  Lindernia procumbens post (herbicidal effect): 4 (90%-99% herbicidal effect, phytotoxicity)
[5]
  Scirpus juncoides post (herbicidal effect): 4 (90%-99% herbicidal effect, phytotoxicity)

## CCCCOC(=O)N(c1ccccc1CN1CCC(C)COC1=O)S(=O)(=O)C(F)(F)F (racemic) [2-27]
[1]
  Lindernia procumbens pre (herbicidal effect): 4 (90%-99% herbicidal effect, phytotoxicity)
[2]
  Scirpus juncoides pre (herbicidal effect): 4 (90%-99% herbicidal effect, phytotoxicity)
[3]
  Echinochloa crus-galli post (herbicidal effect): 4 (90%-99% herbicidal effect, phytotoxicity)
[4]
  Lindernia procumbens post (herbicidal effect): 4 (90%-99% herbicidal effect, phytotoxicity)
[5]
  Scirpus juncoides post (herbicidal effect): 4 (90%-99% herbicidal effect, phytotoxicity)

## CC(C)COC(=O)N(c1ccccc1CN1CC(C)(C)COC1=O)S(=O)(=O)C(F)(F)F [Compound 1-28]
[1]
  Lindernia procumbens pre (herbicidal effect): 4 (90%-99% herbicidal effect, phytotoxicity)
[2]
  Scirpus juncoides pre (herbicidal effect): 4 (90%-99% herbicidal effect, phytotoxicity)
[3]
  Echinochloa crus-galli post (herbicidal effect): 4 (90%-99% herbicidal effect, phytotoxicity)
[4]
  Lindernia procumbens post (herbicidal effect): 4 (90%-99% herbicidal effect, phytotoxicity)
[5]
  Scirpus juncoides post (herbicidal effect): 4 (90%-99% herbicidal effect, phytotoxicity)

## O=C1OC(c2c(Cl)cccc2Cl)CCN1Cc1ccccc1NS(=O)(=O)C(F)(F)F (stereo not drawn) [Compound 1-272]
[1]
  Lindernia procumbens pre (herbicidal effect): 5 (100% herbicidal effect, phytotoxicity)
[2]
  Scirpus juncoides pre (herbicidal effect): 4 (90%-99% herbicidal effect, phytotoxicity)
[3]
  Echinochloa crus-galli post (herbicidal effect): 4 (90%-99% herbicidal effect, phytotoxicity)
[4]
  Lindernia procumbens post (herbicidal effect): 5 (100% herbicidal effect, phytotoxicity)
[5]
  Scirpus juncoides post (herbicidal effect): 4 (90%-99% herbicidal effect, phytotoxicity)

## O=C1OC2(CCCC2)CCN1Cc1ccccc1NS(=O)(=O)C(F)(F)F [Compound 1-137]
[1]
  Lindernia procumbens pre (herbicidal effect): 4 (90%-99% herbicidal effect, phytotoxicity)
[2]
  Scirpus juncoides pre (herbicidal effect): 4 (90%-99% herbicidal effect, phytotoxicity)
[3]
  Echinochloa crus-galli post (herbicidal effect): 4 (90%-99% herbicidal effect, phytotoxicity)
[4]
  Lindernia procumbens post (herbicidal effect): 4 (90%-99% herbicidal effect, phytotoxicity)
[5]
  Scirpus juncoides post (herbicidal effect): 4 (90%-99% herbicidal effect, phytotoxicity)
